For data set [1] the following is noted: in vivo; cited from earlier work.
Data set [2] deals with subjects with SWS brain involvement and refractory epilepsy. In words: Expanded access compassionate use program of CBD in Sturge Weber syndrome: seizure frequency and quality of life. The class given is in vivo, human. The following applies: for Week 14 (number of seizures): CBD target dose 15-25 mg/kg/day; for Decrease in seizure frequency (%): week 14 versus baseline. As for the experimental part: “Percentage decrease in seizure frequency” is defined as the number of seizures at week 14 minus the number of seizures at baseline divided by the number of seizures at baseline multiplied by 100.
Four subjects with SWS brain involvement and refractory epilepsy were enrolled in an expanded access compassionate use program for CBD. These subjects were treated with a highly purified extract of cannabidiol (CBD) obtained from a cannabis plant. Frequency of seizures was recorded at each visit, as were reported quality of life changes, including mood, behaviour, and cognitive function.
Data were compared in the 56-day pre-treatment period, the 56-day period after starting maintenance dose (Week 14), and at most recent visit.
The participants in the study were taking at the time of entry into the study between one and four concomitant AEDs.
Patient 1 was taking leviteracetam alone. Patient 2 was taking leviteracetam, valproate, felbamate and clobazam. Patient 3 was taking valproate and topiramate. Patient 4 was taking oxycarbamazepine and lacosamide.
CBD was administered at a target dose of 15-25 mg/kg/day.
All patients entered a baseline period of 14 weeks when parents/caregivers kept prospective seizure diaries, noting all countable seizure types.
Laboratory testing for hematologic, liver, kidney function and concomitant AED levels was performed at baseline, and after every 4 weeks of CBD therapy.

In a further data set the test system is mice. The following applies: after administration of pro-convulsant drugs or an electric current; cited from earlier work.
The subject of data set [3] is adult patients with secondary generalized epilepsy. The following applies: of eight adult patients with secondary generalized epilepsy; cited from earlier work.
The subject of another data set is adult patients. Conditions: 200 mg/day of pure CBD, four adult patients; cited from earlier work.
For data set [4], the system named is institutionalized adult patients. The following applies: 200 mg/day of pure CBD, twelve institutionalized adult patients, open label; cited from earlier work.
The test system of the next data set is Dravet syndrome. The following applies: treatment of Dravet syndrome, announced March 2016; cited from earlier work.
For data set [5], the system named is multiple species and models. The following applies: previous studies in animals; cited from earlier work.

Regarding `CCCCCc1cc(O)c2c(c1)OC(C)(C)[C@@H]1CCC(C)=C[C@@H]21` [THC, Tetrahydrocannabinol], in data set [1], the effect on convulsions result is recorded as “pro-convulsant”.

For `C=C(C)[C@@H]1CCC(C)=C[C@H]1c1c(O)cc(CCCCC)cc1O` [CBD, Cannabidiol], the “Week 14 (number of seizures)” value in data set [2] (Patient 1, concomitant leviteracetam alone, baseline 67 seizures) is on record as 60 number of seizures; in data set [2] (Patient 2, concomitant leviteracetam, valproate, felbamate and clobazam, baseline 6 seizures) it was 1 number of seizures; in data set [2] (Patient 3, concomitant valproate and topiramate, baseline 10 seizures) it was 1 number of seizures; in data set [2] (Patient 4, concomitant oxycarbamazepine and lacosamide, baseline 6 seizures) it was 4 number of seizures. The “Decrease in seizure frequency (%)” value in data set [2] (Patient 1, concomitant leviteracetam alone) amounted to 10%; in data set [2] (Patient 2, concomitant leviteracetam, valproate, felbamate and clobazam), 83%; in data set [2] (Patient 3, concomitant valproate and topiramate), 90%; in data set [2] (Patient 4, concomitant oxycarbamazepine and lacosamide) it was 33%. The “effectiveness in the treatment of SWS” value in data set [2] (conclusion from the four patients) is recorded as “effective”. For the same molecule, the “reported quality of life” value in data set [2] (patient 1) is “remained unchanged”; in data set [2] (three of the four patients (patients 2, 3 and 4)), “improved quality of life”. Besides, the cognitive function result in data set [2] (three subjects (patients 2, 3 and 4)) is reported as “improvements in cognitive function”. In addition, in data set [2] (treatment-resistant SWS patients, four subjects), the “share of patients who benefited from a reduction in the number of seizures” value is on record as “three quarters”. In addition, the mood and behaviour result in data set [2] (two subjects (patient 2 and 3)) was “improvements in mood and behaviour”. Further, the prevention of seizures entry in the data set on mice is “able to prevent seizures”. In addition, in data set [3], the “number of patients with a marked reduction of seizures” value was 4. In the data set with adult patients, the “patients who became seizure free” value is listed as “two of the four patients”. In addition, in the data set with adult patients, the “seizure frequency in the remainder of the patients” value was “unchanged”. The control of seizures result in data set [4] is recorded as “ineffective”. The “outcome of the Phase 3 study” value in the data set on Dravet syndrome was “positive results”. The anticonvulsant efficacy entry in data set [5] is “anticonvulsant efficacy in multiple species and models”.

(Values after US10583096B2, “Use of cannabinoids in the treatment of epilepsy” (GW Research Limited, priority 2016, dated 2020).)
